The record followed here is ChEMBL document CHEMBL1201862, “PubChem BioAssay data set” (2004).

Structures are written as SMILES. Active and inactive are the calls of the source.

A short description of assay [1]: viability of uninfected HEp-2 cells – cell-based, HTS, cytotoxicity control for RSV inhibitor project, dose response (AID 2410). The assay is classed as functional. The settings on record: human respiratory syncytial virus.
A further assay deals with Cytochrome P450 2C19 (Homo sapiens, UniProt P33261). Kind of assay: Cytochrome panel assay with activity outcomes. Panel member name: p450-cyp2c19 Compounds with AC50 equal or less than 10 uM are considered active. The following applies: read-out: AC50. The assay is classed as functional.
Chain of Cytochrome P450 2C19 (P33261 whole entry): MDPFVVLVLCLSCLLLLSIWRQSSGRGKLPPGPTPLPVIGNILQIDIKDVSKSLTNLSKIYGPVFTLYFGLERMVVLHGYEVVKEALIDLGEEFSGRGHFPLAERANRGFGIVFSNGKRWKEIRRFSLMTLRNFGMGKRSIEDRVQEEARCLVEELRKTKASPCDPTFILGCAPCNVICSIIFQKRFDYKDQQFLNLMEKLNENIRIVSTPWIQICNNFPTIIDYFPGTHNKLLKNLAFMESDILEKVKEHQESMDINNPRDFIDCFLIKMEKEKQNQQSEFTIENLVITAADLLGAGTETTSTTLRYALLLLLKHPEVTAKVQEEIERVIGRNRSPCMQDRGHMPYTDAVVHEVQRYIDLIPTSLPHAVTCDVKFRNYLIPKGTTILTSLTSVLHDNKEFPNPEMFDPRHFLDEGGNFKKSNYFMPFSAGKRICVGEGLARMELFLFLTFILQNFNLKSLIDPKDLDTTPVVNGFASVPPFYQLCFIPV
Another assay addresses Cytochrome P450 2C9 (Homo sapiens, UniProt P11712).
Another assay deals with Cytochrome P450 2D6 (Homo sapiens, UniProt P10635).
Chain of Cytochrome P450 2D6 (P10635 whole entry): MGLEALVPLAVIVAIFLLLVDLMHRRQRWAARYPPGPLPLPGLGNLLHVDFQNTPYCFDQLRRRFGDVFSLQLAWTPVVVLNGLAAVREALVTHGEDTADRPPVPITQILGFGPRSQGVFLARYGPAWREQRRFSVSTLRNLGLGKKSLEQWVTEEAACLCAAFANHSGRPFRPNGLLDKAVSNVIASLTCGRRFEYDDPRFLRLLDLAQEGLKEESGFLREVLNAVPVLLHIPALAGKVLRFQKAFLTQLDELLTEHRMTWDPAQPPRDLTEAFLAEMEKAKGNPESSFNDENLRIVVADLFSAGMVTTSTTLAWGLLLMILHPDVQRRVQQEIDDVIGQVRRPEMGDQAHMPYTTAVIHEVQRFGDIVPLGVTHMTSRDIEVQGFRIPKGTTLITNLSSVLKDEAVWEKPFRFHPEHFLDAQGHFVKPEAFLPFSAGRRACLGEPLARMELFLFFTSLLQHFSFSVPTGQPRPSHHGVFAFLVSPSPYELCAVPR
In assay [2] the target is T1, Rac GTPase-activating protein 1 (Homo sapiens, UniProt Q9H0H5).
T1 sequence (Q9H0H5 whole entry): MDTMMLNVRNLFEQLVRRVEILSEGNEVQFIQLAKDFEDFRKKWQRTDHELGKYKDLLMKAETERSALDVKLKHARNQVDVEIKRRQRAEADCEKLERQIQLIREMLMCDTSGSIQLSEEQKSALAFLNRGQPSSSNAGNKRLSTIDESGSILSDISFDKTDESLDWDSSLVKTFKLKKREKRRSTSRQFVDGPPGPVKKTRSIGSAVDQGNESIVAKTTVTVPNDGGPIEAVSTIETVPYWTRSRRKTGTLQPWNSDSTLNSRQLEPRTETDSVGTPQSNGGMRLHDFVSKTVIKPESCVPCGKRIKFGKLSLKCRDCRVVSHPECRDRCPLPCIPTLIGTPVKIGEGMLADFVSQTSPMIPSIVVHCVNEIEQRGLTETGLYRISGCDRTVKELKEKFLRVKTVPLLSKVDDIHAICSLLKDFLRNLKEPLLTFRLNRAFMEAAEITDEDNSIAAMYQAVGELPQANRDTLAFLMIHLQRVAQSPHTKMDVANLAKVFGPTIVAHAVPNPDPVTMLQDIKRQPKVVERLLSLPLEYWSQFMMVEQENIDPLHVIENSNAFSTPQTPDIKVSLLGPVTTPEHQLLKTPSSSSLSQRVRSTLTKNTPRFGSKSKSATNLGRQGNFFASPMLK
Kind of assay: blockers of MgcRacGAP-driven Rac1 GTP hydrolysis – biochemical, ADP Hunter fluorescence, primary and confirmatory, confirmation (AID 624330). The assay is classed as functional.

For the next assay, the target named is T2, Cytochrome P450 1A2 (Homo sapiens, UniProt P05177).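 Note: PubChem cytochrome P450 panel assay, CYP1A2 panel member.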
T2 sequence (P05177 whole entry): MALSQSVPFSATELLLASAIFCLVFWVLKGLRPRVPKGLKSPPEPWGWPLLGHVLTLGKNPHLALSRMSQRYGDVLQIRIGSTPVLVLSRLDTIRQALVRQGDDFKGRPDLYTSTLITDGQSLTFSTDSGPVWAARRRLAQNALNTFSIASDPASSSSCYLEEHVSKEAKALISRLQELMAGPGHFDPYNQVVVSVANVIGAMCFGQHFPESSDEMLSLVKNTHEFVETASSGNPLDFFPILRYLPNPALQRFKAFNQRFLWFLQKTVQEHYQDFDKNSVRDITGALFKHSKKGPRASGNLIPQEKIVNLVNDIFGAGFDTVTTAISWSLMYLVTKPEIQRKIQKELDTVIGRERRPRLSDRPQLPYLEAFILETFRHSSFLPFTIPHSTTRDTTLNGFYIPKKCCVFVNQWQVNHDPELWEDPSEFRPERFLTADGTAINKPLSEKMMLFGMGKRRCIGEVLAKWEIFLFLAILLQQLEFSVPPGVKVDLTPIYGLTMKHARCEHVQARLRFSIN

Another assay deals with Cytochrome P450 3A4 (Homo sapiens, UniProt P08684).
Chain of Cytochrome P450 3A4 (P08684 whole entry): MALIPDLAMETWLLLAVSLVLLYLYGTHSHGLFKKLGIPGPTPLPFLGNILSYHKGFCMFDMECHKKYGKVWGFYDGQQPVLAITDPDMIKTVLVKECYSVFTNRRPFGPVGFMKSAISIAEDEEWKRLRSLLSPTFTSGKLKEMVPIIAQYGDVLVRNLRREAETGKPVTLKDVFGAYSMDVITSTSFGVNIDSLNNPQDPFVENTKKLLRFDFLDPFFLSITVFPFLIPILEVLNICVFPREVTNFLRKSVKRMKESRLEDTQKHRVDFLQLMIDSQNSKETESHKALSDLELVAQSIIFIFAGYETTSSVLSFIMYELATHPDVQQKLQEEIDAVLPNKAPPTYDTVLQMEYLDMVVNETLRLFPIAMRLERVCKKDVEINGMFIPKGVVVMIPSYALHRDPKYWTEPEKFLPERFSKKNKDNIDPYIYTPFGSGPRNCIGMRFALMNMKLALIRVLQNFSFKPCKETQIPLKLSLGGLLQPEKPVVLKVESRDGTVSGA
Assay [3] can be described thus: Luminescence Cell-Based Dose Response HTS to Identify Activators of Luciferase Translation or Activity in H4 […] Cells. [Related pubchem assays: 1829 (Project Summary), 1814 (Primary HTS)]. The class given is functional.
The test system of the next assay is H4. Kind of assay: Luminescence Cell-Based Dose Response HTS to Identify Activators of 5'UTR Stem-Loop Driven Prion Protein mRNA Translation in H4 Neuroglioblastoma Cells. [Related pubchem assays: 1829 (Project Summary), 1814 (Primary HTS)]. The class given is functional. The following applies: Homo sapiens.

Chain of Cytochrome P450 2C9 (P11712 whole entry): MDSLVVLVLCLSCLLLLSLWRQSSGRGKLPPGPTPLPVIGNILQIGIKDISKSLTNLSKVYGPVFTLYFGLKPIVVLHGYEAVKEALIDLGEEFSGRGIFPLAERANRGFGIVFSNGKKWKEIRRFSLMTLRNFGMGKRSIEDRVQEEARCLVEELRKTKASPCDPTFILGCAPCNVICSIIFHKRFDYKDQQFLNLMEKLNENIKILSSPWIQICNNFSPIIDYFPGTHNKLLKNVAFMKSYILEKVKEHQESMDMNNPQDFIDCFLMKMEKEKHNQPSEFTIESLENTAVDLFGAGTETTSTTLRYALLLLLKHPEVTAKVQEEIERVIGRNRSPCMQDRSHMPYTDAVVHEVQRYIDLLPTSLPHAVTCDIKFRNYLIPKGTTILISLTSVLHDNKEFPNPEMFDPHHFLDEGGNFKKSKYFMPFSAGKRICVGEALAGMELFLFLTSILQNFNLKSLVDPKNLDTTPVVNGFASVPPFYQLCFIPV

A word on the CC50: it is the concentration that lowers cell viability or growth by half. As for `CCc1cccc(NC(=O)c2cnn(-c3ccccc3)c2C)c1`, the CC50 in assay [1] was 29.9 µM (active). As a reminder, the AC50 is the concentration at which the activity in the assay is half-maximal. On to `CCOC(=O)Nc1ccc(S(=O)(=O)NCc2ccccc2)cc1`, for which the AC50 was 2.24 µM (inconclusive) at Cytochrome P450 2C19, 5.62 µM (inconclusive) at Cytochrome P450 2C9 and 14.1 µM (inconclusive) at Cytochrome P450 2D6. As to `Cc1ccc(-n2nc3c(=O)n(CCCC(=O)NCc4ccccc4C)nc(C)c3c2C)cc1`, in [1], the cytotoxic concentration (CC50) was > 50 µM (active). As for `CN(C(=O)c1ccc(COc2ccccc2Br)o1)c1ccccc1`, in [1], the cytotoxic concentration (CC50) is 22.1 µM (active). Take `COc1cccc(Nc2ncc3ncc(=O)n(Cc4cccs4)c3n2)c1`: the AC50 was 3.98 µM (inconclusive) on Cytochrome P450 2C19, 2.51 µM (inconclusive) at Cytochrome P450 2C9 and 3.98 µM (inconclusive) at Cytochrome P450 2D6.

For `C[C@H](NC(=O)c1[nH]cnc1C(=O)N[C@@H](Cc1ccccc1)C(=O)OCc1ccccc1)C(=O)OC(C)(C)C`, in [1], the CC50 is 24.8 µM (active). Usually IC50 stands for the midpoint of a concentration-inhibition curve. For `COc1cccc(OC)c1OCCCCN1CCCC1`, in assay [2], the IC50 was 204 µM (active). The AC50 was 14.1 µM (inconclusive) at Cytochrome P450 2D6 and 15.8 µM (inconclusive) at Cytochrome P450 1A2. `CCc1nnc(NC(=O)C2CCN(C(=O)NC3CCCCC3)CC2)s1`: the results for the AC50 on Cytochrome P450 2C19 and at Cytochrome P450 2C9 were 0.158 µM (inconclusive) and 20 µM (inconclusive), respectively. Regarding `Cc1ccc(S(=O)(=O)N2CCC(=O)N(C(COCc3cccc(C)c3)Cc3ccccc3)CC2)cc1` (stereo not given), the CC50 in [1] was 28.7 µM (active). Consider `N#Cc1ccc(Oc2nc(C(N)=O)cc(-c3ccccc3)n2)cc1`, for which the AC50 at Cytochrome P450 2C19 is 25.1 µM (inconclusive). As for `COc1ccccc1[C@@H]1C(c2cccc(Cl)c2)=NN(c2ccccc2)[C@H]1C(=O)N1CCOC1=O`, in [1], the CC50 was 33.2 µM (active).

Take `C=C(CC1([C@@H](NP(=O)(c2ccccc2)c2ccccc2)[C@H]2C[C@@H]2CCN(C(=O)OCC)S(=O)(=O)c2ccc(C)cc2)CC1)c1ccccc1`: the figures for the AC50 on Cytochrome P450 2C19 and at Cytochrome P450 2C9 were 1.26 µM (inconclusive) and 5.01 µM (inconclusive), respectively.

Take `Cc1ccccc1CN1CCN(CC(=O)NCCCN2CCN(c3ccc(F)cc3)CC2)C1=O`: the concentration at half-maximal activity (AC50) is 25.1 µM (inconclusive) on Cytochrome P450 3A4, 11.2 µM (inconclusive) on Cytochrome P450 2C19 and 12.6 µM (inconclusive) on Cytochrome P450 2C9. As for `COc1cc(-c2c(-c3ccsc3)sc3ccccc23)cc(OC)c1OC`, the CC50 in assay [1] is 33.7 µM (active). On to `N#Cc1ccc(S(=O)(=O)N2CCCN(c3nc4ccc(Cl)cc4s3)CC2)cc1`, for which the CC50 in assay [1] is > 50 µM (active). As for `CS(=O)(=O)Nc1cccc(-c2nccc(-n3ccnc3)n2)c1`, the AC50 on Cytochrome P450 2C19 was 39.8 µM (inconclusive). Usually EC50 stands for the concentration that produces a half-maximal response. Turning to `CCOc1ccc(/C=C2\CCC(C3CCCC3)C2=O)cc1` (stereo not given), the EC50 (in assay [3]; in the assay with H4) was > 120 µM (not active) throughout. For `COC(=O)c1sccc1NC(=O)c1cc(-c2ccc(C)cc2)nc2ccccc12`, the figures for the AC50 at Cytochrome P450 2C19 and at Cytochrome P450 1A2 were 10 µM (inconclusive) and 14.1 µM (inconclusive), respectively. For `CC1CCN(C(=S)SCc2nc(N)nc(Nc3ccccc3)n2)CC1`, the CC50 in assay [1] is 13.3 µM (active). For `OCCCN=C(S)Nc1ccc(Nc2ccccc2)cc1`, the IC50 in assay [2] was 88 µM (active).

On to `CCc1ccc(NC(=O)C2CCN(S(=O)(=O)c3c(C)nc(O)nc3O)CC2)cc1`, for which the AC50 on Cytochrome P450 2C19 was 11.2 µM (inconclusive). As to `COc1cc(NC(=O)COC(=O)/C=C/c2ccc(O)c(OC)c2)cc(OC)c1`, the IC50 in assay [2] is 51.7 µM (active). As for `COc1ccccc1OCC#CCn1ccnc1`, in [2], the IC50 is 160 µM (active). As for `COC(=O)CCC(=O)Nc1cccc2ccccc12`, on Cytochrome P450 2C19, the AC50 is 20 µM (inconclusive).

On to `O=C1CC(c2ccccc2)CC(O)=C1/C=N/c1ccc(O)cc1` (stereo not given), for which, in assay [2], the IC50 is 26 µM (active). For the molecule `COc1ccccc1CNCCc1cccc(Cl)c1`, the concentration for half-maximal inhibition (IC50) in [2] is 135 µM (active). For the molecule `COc1ccc(C(=O)N/N=C/c2ccc(N3CCOCC3)s2)cc1OC`, the half-maximal inhibitory concentration (IC50) in assay [2] is 110 µM (active). Regarding `CCOC(=O)N/N=C/c1ccccc1F`, the half-maximal activity concentration (AC50) on Cytochrome P450 2C19 was 35.5 µM (inconclusive).
